Source: ChEMBL document CHEMBL1155701, “Two novel cyclic peptides with antifungal activity from the cyanobacterium Tolypothrix byssoidea (EAWAG 195)” (J Nat Prod, 2001)
Values after ≈ are worked out from the molar mass of the structure shown. Non-standard residues stand in square brackets, D forms with d. Residues, ends and D or L forms follow the SMILES beside them. Dhb = C/C=C(\N)C(=O)O

System: Candida albicans
Assay: Antifungal activity against Candida albicans ATCC 26790
Type: functional, organism-based

| SMILES | MIC [µg/mL] | IC50 [µg/mL] |
| --- | --- | --- |
| C/C=C1\NC(=O)[C@H](Cc2ccccc2)NC(=O)[C@H]([C@@H](C)CC)NC(=O)[C@H]([C@@H](C)CC)NC(=O)[C@H]([C@@H](C)O)NC(=O)[C@@H](CC(C)C)NC(=O)[C@H](CCCNC(=N)N)NC(=O)[C@H]2CCCN2C(=O)[C@H](C(C)C)NC(=O)[C@H](C(C)C)NC(=O)[C@H]([C@@H](C)O)NC(=O)[C@H]([C@@H](C)OC(C)=O)NC(=O)[C@H](C(C)C)NC1=O | 32 (≈ 21.8 µM) | – |
| C/C=C1\NC(=O)[C@H](C(C)C)NC(=O)[C@H](Cc2ccccc2)NC(=O)[C@H](C(C)C)NC(=O)[C@H](C(C)C)NC(=O)[C@H](C(C)C)NC(=O)[C@H]([C@@H](C)O)NC(=O)[C@H]([C@@H](C)CC)NC(=O)[C@H]([C@@H](C)O)NC(=O)[C@H](C(C)C)NC(=O)[C@H](CCSC)NC(=O)[C@H](Cc2ccc(O)cc2)NC(=O)[C@H](CCCNC(=N)N)NC1=O (cyclo([Dhb]RYMVTITVVVFV)) | 64 (≈ 42.9 µM) | – |
| Clc1ccc(COC(Cn2ccnc2)c2ccc(Cl)cc2Cl)c(Cl)c1 (stereo not drawn) [MICONAZOLE] | – | 8 (≈ 19.2 µM) |
